Data taken from patent publication US7884067B2, “Peptides derived from cadherin and methods of use thereof” (Mount Sinai School of Medicine of New York University, priority 2001, dated 2011).

Legend:
E-cadherin [1] = assay: E-cadherin cleavage in staurosporine-treated (apoptotic) A431 cells (Western blot); format: cell-based, human
Description: Cell Cultures and transfections. Cells were grown in Dulbecco's Modified Eagle Medium (DMEM) plus 10% fetal bovine serum, penicillin and streptomycin in 5% CO2 at 37° C. […] A431 cells were from American Type Culture Collection. […] A431D cells stably transfected with wild-type or GGG759-761AAA mutant E-cadherin were provided by Dr. A. B. Reynolds.
(§1) Immunoprecipitations (IPs), immunoblotting, immunofluorescence and confocal microscopy. For WB analysis of cell extracts, cells were washed with PBS and then solubilized in RIPA buffer. For IPs cells were solubilized in Hepes buffer (25 mM Hepes [pH 7.4], 150 mM NaCl, 1× Complete protease inhibitor cocktail, Roche) containing 1% digitonin (IPs with I-R222 and PI-R222 antibodies) or 1% Triton X-100 (IPs with β-catenin and desmoglein antibodies). Following centrifugation at 17,000×g for 10 min, supernatants (1 mg protein) were pre-cleared with protein A- or protein G-agarose (Pierce) for 2 hours. Supernatants were then incubated with antibodies overnight at 4° C. and treated for 2 hours with protein A-agarose (polyclonal antibodies) or with protein G-agarose (monoclonal antibodies). IPs were washed with Hepes buffer containing either 1% digitonin or 1% Triton X-100 and analyzed by SDS-PAGE. Immunofluorescence and confocal microscopy was performed as described by Georgakopoulos et al., (1999). Briefly, cells were plated on 22×22 mm collagen-coated glass coverslips, fixed in cold methanol for 10 min at −20° C. Following washing in TBS (25 mM Tris-HCl [pH 7.4], 150 mM NaCl), cells were treated with 10% goat serum in SuperBlock (Pierce) for 1 hour, incubated overnight with primary antibody (1:100), washed in TBS and then were incubated with species specific Alexa Fluor™ secondary antibody conjugates (Molecular Probes). Cells were washed with TBS, mounted with Prolong antifade kit (Molecular Probes), and photographed on a Leica confocal laser scanning microscope.
Conditional media (20 μl) from A431 cells cultured in the absence or presence of […] and treated with SDS as above were probed on Western blots with anti-E-cadherin ectodomain antibody H108.

N-cadherin [2] = assay: N-cadherin processing in fibroblast cultures (Western blot, C32); format: cell-based, mouse; settings: GM6001, FIG. 7B lanes 5 and 6
Description: Extracts from PS1+/+ or PS1−/− mouse embryos were probed on WBs with either anti-cytoplasmic N-cadherin antibody (FIG. 7A, upper panel) or anti-PS I/CTF antibody 33B10 (FIG. 7A, lower panel). Extracts from PS1+/+ or PS1−/− fibroblast cultures were incubated for 16 hours in the absence or presence of DMSO, L-685,458 (0.5 μM) and probed on WBs with either C32 or 33B10 antibodies.

N-cadherin [3] = assay: N-Cad/CTF2 production in rat primary neuronal cultures after stimulation; format: cell-based; parameters: N-Cad/CTF2 production on stimulation / K+-induced increase in N-Cad/CTF2 / L-glutamate-induced increase in N-Cad/CTF2: unit of the concentration uncertain; settings: for N-Cad/CTF2 production on stimulation: 15 minutes stimulation with KCl (50 (unit uncertain)), L-Glutamate (50 (unit uncertain)) or NMDA (50 (unit uncertain))
Description: Primary, neuronal cultures. Mixed hippocampal and cortical neuronal cultures were prepared from E18 mouse or rat brains as described by Banker and Goslin (1991) Culturing Nerves Cells, London, MIT Press. Neurons were maintained 10 days in vitro in glial conditioned MEM containing 2% glucose and N2 supplements as described by Bottenstein and Sato (1979) Proc. Natl. Acad. Sci. USA 76: 514-517, and then were stimulated for 15 minutes with Mg2+-free Hanks' balanced salt solution (HBSS, Sigma) containing KCl (50 mM), L-Glutamate ([…]) or NMDA ([…]). D-APV ([…]) was applied 15 minutes before stimulation.
In vitro γ-secretase-like ε-cleavage assay. Cells were washed in PBS, resuspended in 1 ml of 4° C. hypotonic buffer (10 mM MOPS, pH 7.0, 10 mM KCl) and homogenized on ice. A post-nuclear supernatant was prepared by centrifugation at 1000×g for 15 minutes at 4° C. Crude membranes were isolated from the post-nuclear supernatant by centrifugation at 16,000×g for 40 minutes at 4° C. The membranes were then resuspended in […] of assay buffer (150 mM sodium citrate, pH 6.4, 1× Complete protease inhibitor cocktail), and incubated at 37° C. for 2 hours. Samples were either analyzed directly by WB or separated into pellet (P100) and supernatant (S100) fractions by ultracentrifugation for 1 hour at 100,000×g at 4° C. The S100 and P100 fractions were then analyzed by WB.
Rat brain neurons were pre-incubated in the absence (−) or presence (+) of D-APV and then stimulated with either KCl, L-glutamate (L-gly) or NMDA. Membranes from these neurons were used in in vitro assays for production of N-Cad/CTF2.

[4] = test system: E-cadherin/catenin cytoskeletal complex; assay: Ionomycin-induced CAJ disassembly in A431 cells, subcellular fractionation and Western blot; format: cell-based, human; settings: ionomycin 10 μM, absence of inhibitor
Description: Subcellular fractionation. Confluent A431 cells (one 100 mm dish) were rinsed and scraped with 4° C. phosphate-buffered saline (PBS). Cells were then placed into 1 ml of buffer A (20 mM Tris-HCl [pH 7.5], 0.25 M sucrose, 10 mM EGTA, 2 mM EDTA, 1× Complete protease inhibitor cocktail, Roche), passed through a 27 gauge needle 10 times, and the obtained cell lysate was centrifuged at 500×g for 10 min at 4° C. The supernatant was then centrifuged at 120,000×g for 45 min at 4° C. to separate the cytosolic and crude membrane fractions. The pellet (crude membrane fraction) was washed twice with buffer A and resuspended by sonication in […] of buffer A containing 1% Triton X-100. The suspension was incubated at 4° C. for 30 min and then centrifuged at 120,000×g for 45 min at 4° C. to separate the membrane and Triton X-100-insoluble fractions. The pellet (Triton X-100-insoluble fraction) was washed twice with buffer A and solubilized by sonication in RIPA buffer. […] of proteins from the different fraction were analyzed by SDS-PAGE.
In stable cell-cell adhesion, the E-cadherin/β-catenin complex of the CAJ is anchored to the actin cytoskeleton via catenin and this association is manifested by the insolubility of the complex components in Triton X-100 (Baki et al., (2001)). Induction of apoptosis or calcium influx disrupts cadherin-mediated cell-cell adhesion by cleaving cadherin and disassembling the CAJ complexes. To determine whether the γ-secretase cleavage of E-cadherin is involved in the CAJ disassembly, calcium influx was induced with ionomycin (10 μM) in A431 cells preincubated for 30 minutes in the absence or presence of the γ-secretase inhibitor L-685,458. Cell extracts were fractionated, and analyzed on Western blots with antibodies against cytoplasmic E-cadherin C36 or β- and α-catenins. […] In addition, L-685,458 delayed the ionomycin-induced decrease of cytoskeletal β-catenin and α-catenin and inhibited their release to the soluble cytosol.

A431 cells = assay: Laser scanning confocal microscopy of ionomycin-induced cell-cell dissociation; format: cell-based, human; settings: ionomycin 45 minutes
Description: as §1
The PS1/γ-secretase role in the disassembly of CAJ was further examined using laser scanning confocal microscopy (LSCM). A431 cells were pre-incubated for 30 minutes in the absence or presence of L-685,458 and then treated for 45 minutes with ionomycin. Following the ionomycin-induced cell-cell dissociation, the distribution of PS1, E-cadherin, β-catenin and α-catenin was analyzed by LSCM using the constant detector setting. […]

E-cadherin [5] = assay: Ionomycin treatment of A431D cells transfected with WT or GGG759-761AAA mutant E-cadherin; format: cell-based; settings: ionomycin 45 minutes
Description: Cell Cultures and transfections. Cells were grown in Dulbecco's Modified Eagle Medium (DMEM) plus 10% fetal bovine serum, penicillin and streptomycin in 5% CO2 at 37° C. Fibroblast cell lines derived either from wild-type (WT) (PS1+/+) or PS1 knock-out (PS1−/−) mice were stably transfected with human E-cadherin as described by Baki et al., (2001). A431 cells were from American Type Culture Collection. Stable transfectants of PS1 cDNA in HEK293 cells were prepared as described by Georgakopoulos et al., (1999). A431D cells stably transfected with wild-type or GGG759-761AAA mutant E-cadherin were provided by Dr. A. B. Reynolds.
A431D cells stably transfected with WT E-cadherin or with the E-cadherin mutant were incubated in the absence or presence of ionomycin for 45 minutes and RIPA extracts were probed on Western blots with C36 antibody. Cytosolic fractions were probed with antibodies against E-cadherin (C36), β-catenin or α-catenin. […] Furthermore, no soluble E-Cad/CTF2 was detected in mutant transfectants either in the presence or absence of ionomycin. Thus, PS1 binding to E-cadherin is required for the PS1/γ-secretase cleavage of E-cadherin and for the release of E-Cad/CTF2, β-catenin and α-catenin to the soluble cytosol.

Aβ40 and Aβ42 = assay: Secreted Aβ ELISA in CHO cells expressing Swedish APP mutant; format: cell-based; settings: transient transfection, vs vector cDNA, FIG. 4B
Description: CHO cells expressing Swedish APP mutant were transiently transfected with vector cDNA (vector), full length E-cadherin (E-cadherin), a cDNA construct encoding the transmembrane and ectodomain sequence of E-cadherin (EC0) or a cDNA expressing the entire cytoplasmic sequence of E-cadherin (CTF2). Secreted Aβ40 and Aβ42 were determined by ELISA. Each value is a mean±SD from three assays each performed in duplicate. […] Expression of transfected proteins in swCHO cells was monitored by Western blotting.

## CNC(=O)[C@H](Cc1c[nH]c2ccccc12)NC(=O)[C@@H](CC(=O)NO)CC(C)C [GM6001]
E-cadherin [1]; 30 minutes preincubation with GM6001 (2.5 μM), then STS 6 hours
  production of the 38 kDa fragment (E-Cad/CTF1): inhibited
E-cadherin [1]; antibody H108
  secreted 95 kDa fragment (E-Cad/NTF1), effect of MMP inhibitor in STS-treated cells: inhibited
N-cadherin [2]
  N-Cad/CTF1: decreased
  full length N-cadherin: increased

## [Cl-].[K+] [KCl]
N-cadherin [3]
  N-Cad/CTF2 production on stimulation: stimulated

## N[C@@H](CCC(=O)O)C(=O)O [L-glutamate, L-Glutamate]
N-cadherin [3]
  N-Cad/CTF2 production on stimulation: induced an increase in N-Cad/CTF2

## C[C@H](CCC(=O)O)C[C@H](C)C[C@H](C)C(=O)/C=C(\O)[C@H](C)C[C@H](C)C/C=C/[C@@H](C)[C@@H](O)[C@@H](C)[C@@H](O)C[C@@H]1CC[C@@](C)([C@H]2CC[C@@](C)([C@@H](C)O)O2)O1 [ionomycin]
[4]
  cytoskeletal (Triton X-100-insoluble) fraction of full-length E-cadherin and E-Cad/CTF1: time-dependent decrease
  cytoskeletal association (Triton X-100-insoluble fraction) of β-catenin and α-catenin: decreased
  soluble cytosolic E-Cad/CTF2: corresponding increase
  soluble cytosolic levels of β-catenin and α-catenin: significant increase
A431 cells
  cell-cell adhesion: disrupted cell-cell adhesion
  plasma membrane staining of PS1, E-cadherin, β-catenin and α-catenin epitopes: decreased plasma membrane staining of all epitopes
E-cadherin [5]; cells expressing WT E-cadherin
  soluble E-Cad/CTF2, β-catenin and α-catenin in cytosolic fractions: significant increase
E-cadherin [5]; cells expressing mutant E-cadherin GGG759-761AAA
  soluble β- or α-catenin in cytosolic fractions: no ionomycin-induced increase
N-cadherin [3]; treatment of rat primary neuronal cultures with ionomycin
  N-Cad/CTF2: increased N-Cad/CTF2

## CTF-2: cDNA expressing the entire cytoplasmic sequence of E-cadherin
Aβ40 and Aβ42
  secreted Aβ40: significantly inhibited
  secreted Aβ42: significantly inhibited

## D(−)-2-amino-5-phosphonovalerate [D-APV]
N-cadherin [3]; D-APV (100 (unit uncertain)) applied 15 minutes before stimulation with KCl
  K+-induced increase in N-Cad/CTF2: inhibited
N-cadherin [3]; D-APV (100 (unit uncertain)) applied 15 minutes before stimulation with L-glutamate
  L-glutamate-induced increase in N-Cad/CTF2: blocked

## Z-DEVD-FMK
E-cadherin [1]; 30 minutes preincubation with Z-DEVD-FMK (50 μM), then STS 6 hours
  29 kDa fragment (E-Cad/CTT3): inhibited
